# Reference: patent US10597388B2, “Pyridazinone herbicides” (FMC CORPORATION, priority 2014, dated 2020)
# Legend:
# Format in all cases: in vivo
# [1] = test system: barnyardgrass (Echinochloa crus-galli); assay: Test C greenhouse herbicide test, pre- and postemergence
# How it was run: (§1)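 Greenhouse pots; pre-em on seeded loam:sand blend, post-em on 2–18 cm plants (1–4 leaf) in sphagnum peat/vermiculite medium. Formulation: non-phytotoxic solvent + surfactant. Read-out: visual % control (0–100) vs controls at 13–15 d.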
# [2] = test system: blackgrass (Alopecurus myosuroides); assay: as above
# How it was run: as §1
# corn (Zea mays) = assay: as above
# How it was run: as §1
# [3] = test system: crabgrass, large (large crabgrass, Digitaria sanguinalis); assay: as above
# How it was run: as §1
# [4] = test system: foxtail, giant (giant foxtail, Setaria faberii); assay: as above
# How it was run: as §1
# [5] = test system: johnsongrass (Sorghum halepense); assay: as above
# How it was run: as §1
# [6] = test system: lambsquarters (Chenopodium album); assay: as above
# How it was run: as §1
# [7] = test system: morningglory (Ipomoea coccinea); assay: as above
# How it was run: as §1
# [8] = test system: pigweed (Amaranthus retroflexus); assay: as above
# How it was run: as §1
# [9] = test system: ragweed (common ragweed, Ambrosia elatior); assay: as above
# How it was run: as §1
# [10] = test system: ryegrass, Italian (Italian ryegrass, Lolium multiflorum); assay: as above
# How it was run: as §1
# soybean (Glycine max) = assay: as above
# How it was run: as §1
# [11] = test system: waterhemp (common waterhemp, Amaranthus rudis); assay: as above
# How it was run: as §1
# [12] = test system: wheat (winter wheat, Triticum aestivum); assay: as above
# How it was run: as §1
# kochia (Kochia scoparia) = assay: Test C greenhouse herbicide test, postemergence; conditions: Postemergence
# How it was run: (§2)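 Steps: pot plants in peat-based medium; spray postemergence at 1- to 4-leaf stage; hold in greenhouse 13 to 15 d; score visually against controls from 0 (no effect) to 100 (complete control).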
# [13] = test system: oat, wild (wild oat, Avena fatua); assay: Test C greenhouse herbicide test, postemergence; conditions: Postemergence
# How it was run: as §2
# [14] = Postemergence, 31 g ai/ha, scale 0 to 100 (0 no effect, 100 complete control)
# [15] = Postemergence, 125 g ai/ha, scale 0 to 100, 0 is no effect, 100 is complete control
# [16] = Postemergence, 250 g ai/ha, scale 0 to 100, 0 no effect, 100 complete control, 13 to 15 d
# [17] = Preemergence, 31 g ai/ha, scale 0 to 100, 0 is no effect, 100 is complete control
# [18] = Preemergence, 62 g ai/ha, scale 0 to 100, 0 is no effect, 100 is complete control
# [19] = Preemergence, 125 g ai/ha, scale 0 to 100, 0 is no effect, 100 is complete control
# [20] = Preemergence, 250 g ai/ha, scale 0 to 100 (0 no effect, 100 complete control)
# [21] = postemergence, 62 g ai/ha, scale 0 to 100, 0 no effect, 100 complete control
# [22] = 31 g ai/ha, scale 0 to 100 (0 no effect, 100 complete control)
# [23] = 125 g ai/ha, scale 0 to 100, 0 is no effect, 100 is complete control
# [24] = 250 g ai/ha, scale 0 to 100, 0 no effect, 100 complete control, 13 to 15 d
structure (smiles),measurement,setting,value
CCC(=O)Oc1c(C)nn(C)c(=O)c1-c1c(C)sc2ccc(Cl)cc12 [Compound 109],"Plant response rating, Barnyardgrass",[1]; [14],25
same,"Plant response rating, Barnyardgrass",[1]; [15],55
same,"Plant response rating, Barnyardgrass",[1]; [16],65
same,"Plant response rating, Barnyardgrass",[1]; [17],10
same,"Plant response rating, Barnyardgrass",[1]; [18],35
same,"Plant response rating, Barnyardgrass",[1]; [19],70
same,Barnyardgrass plant response rating,[1]; [20],80
same,Barnyardgrass plant response rating,[1]; [21],30
same,"Plant response rating, Blackgrass",[2]; [14],20
same,"Plant response rating, Blackgrass",[2]; [15],50
same,"Plant response rating, Blackgrass",[2]; [16],80
same,"Plant response rating, Blackgrass",[2]; [17],35
same,"Plant response rating, Blackgrass",[2]; [18],30
same,"Plant response rating, Blackgrass",[2]; [19],85
same,Blackgrass plant response rating,[2]; [20],90
same,Blackgrass plant response rating,[2]; [21],25
same,"Plant response rating, Corn",corn (Zea mays); [14],0
same,"Plant response rating, Corn",corn (Zea mays); [15],35
same,"Plant response rating, Corn",corn (Zea mays); [16],50
same,"Plant response rating, Corn",corn (Zea mays); [17],5
same,"Plant response rating, Corn",corn (Zea mays); [18],0
same,"Plant response rating, Corn",corn (Zea mays); [19],0
same,Corn plant response rating,corn (Zea mays); [20],0
same,Corn plant response rating,corn (Zea mays); [21],15
same,"Plant response rating, Crabgrass, Large",[3]; [14],35
same,"Plant response rating, Crabgrass, Large",[3]; [15],60
same,"Plant response rating, Crabgrass, Large",[3]; [16],60
same,"Plant response rating, Crabgrass, Large",[3]; [17],40
same,"Plant response rating, Crabgrass, Large",[3]; [18],65
same,"Plant response rating, Crabgrass, Large",[3]; [19],70
same,"Crabgrass, Large plant response rating",[3]; [20],80
same,"Crabgrass, Large plant response rating",[3]; [21],40
same,"Plant response rating, Foxtail, Giant",[4]; [14],45
same,"Plant response rating, Foxtail, Giant",[4]; [15],80
same,"Plant response rating, Foxtail, Giant",[4]; [16],85
same,"Plant response rating, Foxtail, Giant",[4]; [17],65
same,"Plant response rating, Foxtail, Giant",[4]; [18],85
same,"Plant response rating, Foxtail, Giant",[4]; [19],85
same,"Foxtail, Giant plant response rating",[4]; [20],90
same,"Plant response rating, Johnsongrass",[5]; [14],0
same,"Plant response rating, Johnsongrass",[5]; [15],5
same,"Plant response rating, Johnsongrass",[5]; [16],5
same,"Plant response rating, Johnsongrass",[5]; [17],0
same,"Plant response rating, Johnsongrass",[5]; [18],30
same,"Plant response rating, Johnsongrass",[5]; [19],40
same,Johnsongrass plant response rating,[5]; [20],65
same,"Plant response rating, Lambsquarters",[6]; [14],95
same,"Plant response rating, Lambsquarters",[6]; [15],100
same,"Plant response rating, Lambsquarters",[6]; [16],100
same,"Plant response rating, Lambsquarters",[6]; [17],80
same,"Plant response rating, Lambsquarters",[6]; [18],90
same,"Plant response rating, Lambsquarters",[6]; [19],90
same,Lambsquarters plant response rating,[6]; [20],100
same,"Plant response rating, Morningglory",[7]; [14],95
same,"Plant response rating, Morningglory",[7]; [15],100
same,"Plant response rating, Morningglory",[7]; [16],100
same,"Plant response rating, Morningglory",[7]; [17],85
same,"Plant response rating, Morningglory",[7]; [18],85
same,"Plant response rating, Morningglory",[7]; [19],90
same,Morningglory plant response rating,[7]; [20],98
same,"Plant response rating, Pigweed",[8]; [14],95
same,"Plant response rating, Pigweed",[8]; [15],100
same,"Plant response rating, Pigweed",[8]; [16],100
same,"Plant response rating, Pigweed",[8]; [17],100
same,"Plant response rating, Pigweed",[8]; [18],100
same,"Plant response rating, Pigweed",[8]; [19],100
same,Pigweed plant response rating,[8]; [20],100
same,"Plant response rating, Ragweed",[9]; [14],80
same,"Plant response rating, Ragweed",[9]; [15],100
same,"Plant response rating, Ragweed",[9]; [16],100
same,"Plant response rating, Ragweed",[9]; [17],95
same,"Plant response rating, Ragweed",[9]; [18],90
same,"Plant response rating, Ragweed",[9]; [19],95
same,Ragweed plant response rating,[9]; [20],100
same,"Plant response rating, Ryegrass, Italian",[10]; [14],90
same,"Plant response rating, Ryegrass, Italian",[10]; [15],90
same,"Plant response rating, Ryegrass, Italian",[10]; [16],90
same,"Plant response rating, Ryegrass, Italian",[10]; [17],70
same,"Plant response rating, Ryegrass, Italian",[10]; [18],90
same,"Plant response rating, Ryegrass, Italian",[10]; [19],90
same,"Ryegrass, Italian plant response rating",[10]; [20],95
same,"Plant response rating, Soybean",soybean (Glycine max); [14],0
same,"Plant response rating, Soybean",soybean (Glycine max); [15],30
same,"Plant response rating, Soybean",soybean (Glycine max); [16],25
same,"Plant response rating, Soybean",soybean (Glycine max); [17],0
same,"Plant response rating, Soybean",soybean (Glycine max); [18],0
same,"Plant response rating, Soybean",soybean (Glycine max); [19],0
same,Soybean plant response rating,soybean (Glycine max); [20],0
same,"Plant response rating, Waterhemp",[11]; [14],80
same,"Plant response rating, Waterhemp",[11]; [15],90
same,"Plant response rating, Waterhemp",[11]; [16],100
same,"Plant response rating, Waterhemp",[11]; [17],80
same,"Plant response rating, Waterhemp",[11]; [18],90
same,"Plant response rating, Waterhemp",[11]; [19],100
same,Waterhemp plant response rating,[11]; [20],100
same,"Plant response rating, Wheat",[12]; [14],0
same,"Plant response rating, Wheat",[12]; [15],10
same,"Plant response rating, Wheat",[12]; [16],35
same,"Plant response rating, Wheat",[12]; [17],0
same,"Plant response rating, Wheat",[12]; [18],10
same,"Plant response rating, Wheat",[12]; [19],10
same,Wheat plant response rating,[12]; [20],15
same,"Plant response rating, Kochia",kochia (Kochia scoparia); [22],95
same,"Plant response rating, Kochia",kochia (Kochia scoparia); [23],100
same,"Plant response rating, Kochia",kochia (Kochia scoparia); [24],100
same,"Plant response rating, Oat, Wild",[13]; [22],80
same,"Plant response rating, Oat, Wild",[13]; [23],90
same,"Plant response rating, Oat, Wild",[13]; [24],90
